Among the data in ChEMBL document CHEMBL1152034, “Solid phase synthesis of phosphinic acid endothelin converting enzyme inhibitors” (Bioorg Med Chem Lett, 1996) are IC50 values, retold here.

Test [1] deals with T1, Endothelin-converting enzyme 1 (Homo sapiens, UniProt P42892).
T1 sequence (P42892 whole entry): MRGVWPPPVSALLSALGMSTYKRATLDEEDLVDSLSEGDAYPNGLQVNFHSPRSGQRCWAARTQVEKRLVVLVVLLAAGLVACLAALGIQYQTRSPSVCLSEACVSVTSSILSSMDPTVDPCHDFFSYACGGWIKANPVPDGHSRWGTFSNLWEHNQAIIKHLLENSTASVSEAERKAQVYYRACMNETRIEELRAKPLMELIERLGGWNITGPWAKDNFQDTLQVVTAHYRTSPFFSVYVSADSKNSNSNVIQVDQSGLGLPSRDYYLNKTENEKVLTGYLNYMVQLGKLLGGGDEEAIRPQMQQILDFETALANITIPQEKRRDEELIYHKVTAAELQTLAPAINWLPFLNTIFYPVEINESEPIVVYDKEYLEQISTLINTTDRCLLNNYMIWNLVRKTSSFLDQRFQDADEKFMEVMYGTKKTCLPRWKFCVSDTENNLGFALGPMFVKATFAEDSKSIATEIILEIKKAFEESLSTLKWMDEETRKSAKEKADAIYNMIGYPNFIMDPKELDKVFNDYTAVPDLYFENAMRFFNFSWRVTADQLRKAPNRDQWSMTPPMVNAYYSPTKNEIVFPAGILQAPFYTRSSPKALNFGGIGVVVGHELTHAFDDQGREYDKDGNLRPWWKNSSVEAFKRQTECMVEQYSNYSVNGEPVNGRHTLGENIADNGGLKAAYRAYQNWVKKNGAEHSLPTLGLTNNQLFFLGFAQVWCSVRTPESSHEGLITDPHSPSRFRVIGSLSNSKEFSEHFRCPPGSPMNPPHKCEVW
Description: Inhibition of endothelin-converting enzyme in human umbilical vein endothelial cells. The format is cell-based, Endothelial cell.

In a further test the target is Neprilysin (Homo sapiens, UniProt P08473). Description: Inhibition of neutral endopeptidase in human umbilical vein endothelial cells. The format is cell-based, Endothelial cell.
Chain of Neprilysin (P08473 whole entry): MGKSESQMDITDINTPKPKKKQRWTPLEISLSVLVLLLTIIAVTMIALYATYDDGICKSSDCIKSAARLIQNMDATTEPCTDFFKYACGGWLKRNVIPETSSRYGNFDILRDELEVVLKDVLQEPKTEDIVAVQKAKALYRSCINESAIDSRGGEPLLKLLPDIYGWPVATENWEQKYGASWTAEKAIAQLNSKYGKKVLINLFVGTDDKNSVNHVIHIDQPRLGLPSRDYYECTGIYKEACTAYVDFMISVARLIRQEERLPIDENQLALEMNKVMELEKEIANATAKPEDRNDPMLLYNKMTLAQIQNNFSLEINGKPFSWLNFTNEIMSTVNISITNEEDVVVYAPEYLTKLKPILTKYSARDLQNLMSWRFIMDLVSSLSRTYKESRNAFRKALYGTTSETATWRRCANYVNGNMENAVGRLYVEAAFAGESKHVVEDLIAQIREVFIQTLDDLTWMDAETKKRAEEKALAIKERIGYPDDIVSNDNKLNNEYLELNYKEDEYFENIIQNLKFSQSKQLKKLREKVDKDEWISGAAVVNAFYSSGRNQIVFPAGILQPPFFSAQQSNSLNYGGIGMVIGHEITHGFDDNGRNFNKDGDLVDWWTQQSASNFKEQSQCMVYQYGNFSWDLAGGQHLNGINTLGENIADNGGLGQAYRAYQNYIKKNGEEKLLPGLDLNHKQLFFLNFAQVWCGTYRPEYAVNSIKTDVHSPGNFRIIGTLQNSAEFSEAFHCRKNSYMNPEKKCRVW

Take `O=C(N[C@@H](Cc1ccccc1)P(=O)(O)CC(Cc1ccccc1)C(=O)N[C@H](Cc1ccccc1)C(=O)O)OCc1ccccc1` (stereo partly drawn): the results for the IC50 (in test [1]; on Neprilysin) were more than 100 µM and more than 60 µM, respectively.
For `O=C(O)CNC(=O)C(Cc1ccccc1)CP(=O)(O)[C@H](Cc1ccccc1)NC(=O)OCc1ccccc1` (stereo partly drawn) the same measures were 80 µM and 0.9 µM.
Turning to `O=C(O)[C@H](Cc1c[nH]c2ccccc12)NC(=O)[C@H](Cc1ccccc1)NP(=O)(O)CCCCc1ccccc1`, it took 0.4 µM to reach half-maximal inhibition in test [1] (IC50).
Regarding `CC(C)[C@H](NC(=O)C(Cc1ccccc1)CP(=O)(O)[C@H](Cc1ccccc1)NC(=O)OCc1ccccc1)C(N)=O` (stereo partly drawn), in test [1], the IC50 (as a rule, the concentration at which inhibition is half-maximal) is 20 µM.
Regarding `N=C(N)NCCCC(NC(=O)C(Cc1ccccc1)CP(=O)(O)[C@H](Cc1ccccc1)NC(=O)OCc1ccccc1)C(=O)O` (mixture of isomers), the concentration for half-maximal inhibition (IC50) came to 4.3 µM in test [1] and 0.8 µM against Neprilysin.
In test [1], `CCC(C)C(NC(=O)C(Cc1ccccc1)CP(=O)(O)[C@H](Cc1ccccc1)NC(=O)OCc1ccccc1)C(=O)O` (mixture of isomers) gave an IC50 of 4 µM.
The same measure, in the same setting: in the case of `CC(C)[C@@H](NC(=O)C(Cc1ccccc1)CP(=O)(O)[C@H](Cc1ccccc1)NC(=O)OCc1ccccc1)C(=O)O` (mixture of isomers) it was 60 µM.
On the same count and under the same terms, in the case of `O=C(O)CCC(NC(=O)C(Cc1ccccc1)CP(=O)(O)[C@H](Cc1ccccc1)NC(=O)OCc1ccccc1)C(=O)O` (mixture of isomers) it was 25 µM.
Turning to `O=C(O)CCNC(=O)C(Cc1ccccc1)CP(=O)(O)[C@H](Cc1ccccc1)NC(=O)OCc1ccccc1` (mixture of isomers), the values for the IC50 (in test [1]; against Neprilysin) were 50 µM and 2.3 µM, respectively.
For `O=C(N[C@@H](Cc1ccccc1)P(=O)(O)CC(Cc1ccccc1)C(=O)NC(Cc1c[nH]cn1)C(=O)O)OCc1ccccc1` (mixture of isomers) the same measures were 20 µM and 10 µM.
Compound `O=C(O)CC(NC(=O)C(Cc1ccccc1)CP(=O)(O)[C@H](Cc1ccccc1)NC(=O)OCc1ccccc1)C(=O)O` (mixture of isomers) showed an IC50 in test [1] of 30 µM.
For the compound `NCCCCC(NC(=O)C(Cc1ccccc1)CP(=O)(O)[C@H](Cc1ccccc1)NC(=O)OCc1ccccc1)C(=O)O` (mixture of isomers), the IC50 in test [1] is 30 µM; on Neprilysin, more than 100 µM.
For `CC(NC(=O)C(Cc1ccccc1)CP(=O)(O)[C@H](Cc1ccccc1)NC(=O)OCc1ccccc1)C(=O)O` (mixture of isomers) the same measures were 8 µM and 0.3 µM.
In test [1], `CC(C)C(NC(=O)C(Cc1ccccc1)CP(=O)(O)[C@H](Cc1ccccc1)NC(=O)OCc1ccccc1)C(=O)O` (mixture of isomers) yielded an IC50 of 1.7 µM.
For the compound `NC(=O)CC(NC(=O)C(Cc1ccccc1)CP(=O)(O)[C@H](Cc1ccccc1)NC(=O)OCc1ccccc1)C(=O)O` (mixture of isomers), the IC50 was 20 µM in test [1] and 10 µM against Neprilysin.
For `NC(=O)CCC(NC(=O)C(Cc1ccccc1)CP(=O)(O)[C@H](Cc1ccccc1)NC(=O)OCc1ccccc1)C(=O)O` (mixture of isomers) the same measures were 6 µM and 15 µM.
Turning to `O=C(N[C@@H](Cc1ccccc1)P(=O)(O)CC(Cc1ccccc1)C(=O)NC(Cc1ccc(O)cc1)C(=O)O)OCc1ccccc1` (mixture of isomers), the IC50 in test [1] worked out at 12 µM; against Neprilysin, 2.3 µM.
For `O=C(N[C@@H](Cc1ccccc1)P(=O)(O)CC(Cc1ccccc1)C(=O)NC(Cc1ccccc1)C(=O)O)OCc1ccccc1` (mixture of isomers), in that order: 10 µM and 0.8 µM.
For `O=C(N[C@@H](Cc1ccccc1)P(=O)(O)CC(Cc1ccccc1)C(=O)NC(Cc1c[nH]c2ccccc12)C(=O)O)OCc1ccccc1` (mixture of isomers) the same measures were 1.1 µM and 1.4 µM.
The compound `O=C(O)CC[C@@H](NC(=O)C(Cc1ccccc1)CP(=O)(O)[C@H](Cc1ccccc1)NC(=O)OCc1ccccc1)C(=O)O` (mixture of isomers) registered an IC50 in test [1] of more than 100 µM.
As for `N=C(N)NCCC[C@@H](NC(=O)C(Cc1ccccc1)CP(=O)(O)[C@H](Cc1ccccc1)NC(=O)OCc1ccccc1)C(=O)O` (mixture of isomers), the IC50 in test [1] was more than 100 µM; against Neprilysin, more than 60 µM.
Take `CCCCC(NC(=O)C(Cc1ccccc1)CP(=O)(O)[C@H](Cc1ccccc1)NC(=O)OCc1ccccc1)C(=O)O` (mixture of isomers): in test [1], the IC50 is 12 µM.
As for `CC(O)C(NC(=O)C(Cc1ccccc1)CP(=O)(O)[C@H](Cc1ccccc1)NC(=O)OCc1ccccc1)C(=O)O` (mixture of isomers), the IC50 came to 5 µM in test [1] and 10 µM at Neprilysin.
`CC(C)CC(NC(=O)C(Cc1ccccc1)CP(=O)(O)[C@H](Cc1ccccc1)NC(=O)OCc1ccccc1)C(=O)O` (mixture of isomers; form 1) came in with an IC50 in test [1] of 23 µM.
`CC(C)CC(NC(=O)C(Cc1ccccc1)CP(=O)(O)[C@H](Cc1ccccc1)NC(=O)OCc1ccccc1)C(=O)O` (mixture of isomers; form 2) registered an IC50 in test [1] of 20 µM.
Turning to `C[C@H](O)[C@@H](NC(=O)C(Cc1ccccc1)CP(=O)(O)[C@H](Cc1ccccc1)NC(=O)OCc1ccccc1)C(=O)O` (single isomer, unassigned), the figures for the IC50 (in test [1] (endothelial cell); at Neprilysin) were more than 100 µM and 50 µM, respectively.
As to `O=C(N[C@@H](Cc1ccccc1)P(=O)(O)CC(Cc1ccccc1)C(=O)NC(Cc1ccc(O)cc1)C(=O)O)OCc1ccccc1` (single isomer, unassigned), the 50% inhibitory concentration (IC50) is 7 µM in test [1] and 1 µM on Neprilysin.
For `C[C@H](O)[C@@H](NC(=O)C(Cc1ccccc1)CP(=O)(O)[C@H](Cc1ccccc1)NC(=O)OCc1ccccc1)C(=O)O` (stereo in doubt) the same measures were more than 100 µM and more than 100 µM.
As to `CC(C)[C@@H](NC(=O)C(Cc1ccccc1)CP(=O)(O)[C@H](Cc1ccccc1)NC(=O)OCc1ccccc1)C(=O)O` (stereo in doubt), in test [1], the IC50 is more than 100 µM.
In the case of `NCCCCC(NC(=O)C(Cc1ccccc1)CP(=O)(O)[C@H](Cc1ccccc1)NC(=O)OCc1ccccc1)C(=O)O` (stereo in doubt), the IC50 in test [1] is 60 µM; against Neprilysin (endothelial cell) it was more than 100 µM.
The compound `CC(C)C(NC(=O)C(Cc1ccccc1)CP(=O)(O)[C@H](Cc1ccccc1)NC(=O)OCc1ccccc1)C(=O)O` (stereo in doubt) registered an IC50 in test [1] of 80 µM.
Take `NC(=O)CCC(NC(=O)C(Cc1ccccc1)CP(=O)(O)[C@H](Cc1ccccc1)NC(=O)OCc1ccccc1)C(=O)O` (stereo in doubt): the IC50 (in test [1]; against Neprilysin) was more than 100 µM each time.
Regarding `O=C(N[C@@H](Cc1ccccc1)P(=O)(O)CC(Cc1ccccc1)C(=O)NC(Cc1c[nH]c2ccccc12)C(=O)O)OCc1ccccc1` (stereo in doubt), the half-inhibitory concentration (IC50) in test [1] is 5.8 µM; on Neprilysin it was 10 µM.
